The values that follow come from patent US9872514B2, “Compounds, compositions, and methods for reducing or eliminating bitter taste” (Chromocell Corporation, priority 2010, dated 2018).

Common to all, as to type: in vivo, humans
In assay [1] the test system is bitter taste of an aqueous solution of KCl. The assay can be described thus: Sip and spit bitterness rating of aqueous KCl test solutions. The following applies: Homo sapiens; aqueous KCl 4.85 g/L, 1% EtOH; bitterness scored 0-15 vs KCl standard; dash = none of the tested conc.; read-out: Conc. Where Decrease in Bitter Taste Discerned and p ≦ 0.1. On the procedure:
An amount of this stock compound solution is then added to an aqueous KCl solution. Enough EtOH is then added to the resulting stock compound/KCl solution so that the final KCl test solution contains 1% EtOH. KCl solution standards were similarly prepared by dissolving various amounts of KCl in water and ethanol without adding any test compound.
The effect of the test compounds an the perception of the bitter taste of an aqueous solution of KCl in humans was evaluated using a “sip and spit” test as follows.
(§1) A set of KCl solution standards was developed and each standard solution was assigned a bitterness taste score of 0-15 (corresponding to aqueous KCl concentrations of 0 mM-120 mM). Panelists were trained to recognize these standards. In addition, before each day of testing, panelists were tested to see if they could determine differences in taste between the standard solutions. If a panelist was unable to recognize a change in KCl concentration, they were excluded from the panel for that day.
(§2) In a blind taste test, panelists were asked to compare the bitter taste of a small quantity (e.g., 8 ml) of each of the KCl Test Solutions to the taste of a KCl solution standard, without swallowing (see, e.g., Table 1). Specifically, panelists were asked to rate the bitterness of each KCl Test Solution on a scale of 0-15 using the same scale developed for the KCl solution standards. Each sample was tested in 2-4 discrete taste test experiments. Panelists were asked to rinse with water, eat a cracker, and wait approximately 10 minutes between samples.

In assay [2] the test system is bitter taste of an aqueous solution of potassium lactate. The experiment in a line: Sip and spit bitterness rating of aqueous potassium lactate test solutions. The following applies: Homo sapiens, aqueous potassium lactate 41 g/L, 1% EtOH, dash = none of the tested conc. On the procedure: as §1, §2
Edible potassium lactate solution compositions (“potassium lactate test solutions”) were prepared by first dissolving varying amounts of the test compounds in an amount of ethanol or water (depending on the solubility of the compound) to create a 5 mg/mL stock compound solution. An amount of this stock compound solution is then added to an aqueous potassium lactate solution. Enough EtOH is then added to the resulting stock compound/potassium lactate solution so that the final potassium lactate test solution contains 1% EtOH. Potassium lactate solution standards were similarly prepared by dissolving various amounts of potassium lactate in water and ethanol without adding any test compound.
The effect of the test compounds on the perception of the bitter taste of an aqueous solution of potassium lactate in humans was evaluated using the “sip and spit” test described in Example 2.

Assay [3] relates to bitter taste of KCl foodstuff slurries. The experiment in a line: Latin Square-2AFC sip and spit test of KCl turkey slurry. The following applies: 1.6% KCl, dash = none of the tested conc. On the procedure:
The effect of the test compounds on the perception of the bitter taste of KCl foodstuff slurries in humans was evaluated using a “sip and spit” test using a Latin Square-2AFC testing method as follows.
In a blind taste test, panelists received two portions of turkey slurry—one portion being the KCl foodstuff slurry standard and the other being one of the KCl test foodstuff slurries (prepared as described in Example 5). NaCl foodstuff slurry standards were prepared as described in Example 1.
The panelists tasted each of the portions by sipping and spitting. In order to eliminate any effects of sample order, a complete Latin Square design was employed so that each possible order of sample presentation was utilized across subjects. Each sample was tested in several discrete taste test experiments. Panelists were asked to rinse with water, eat a cracker, and wait about 10 minutes between samples. In each case, the panelists were asked to choose the sample that tasted less bitter.

Assay [4] relates to bitter taste of an aqueous solution of KCl. The assay can be described thus: Latin Square-2AFC sip and spit test of aqueous KCl solutions. The settings on record: Homo sapiens; aqueous KCl 4.85 g/L, Latin Square-2AFC vs KCl standard; dash = none of the tested conc.; read-out: Conc. at Which At Least 50% of Panelist Discerned Decrease in Bitter Taste. On the procedure: The effect of the test compounds on the perception of the bitter taste of an aqueous solution of KCl in humans was evaluated using a “sip and spit” test using a Latin Square-2AFC testing method as follows.
In a blind taste test, panelists were asked to compare the bitter taste of a small quantity (e.g., 8 ml) of a KCl Test Solution to the taste of a KCl solution standard (prepared as described in Example 1), without swallowing. NaCl solution standards were prepared as described in Example 1.
In order to eliminate any effects of sample order, a complete Latin Square design was employed so that each possible order of sample presentation was utilized across subjects. Each sample was tested in several discrete taste test experiments. Panelists were asked to rinse with water, eat a cracker, and wait about 10 minutes between samples. In each case, the panelists were asked to choose the sample which tasted “less bitter.” Illustrative results of the aqueous solution Latin Square-2AFC testing are presented in Table 5.

The subject of assay [5] is bitter taste of KCl in solid-matrix foodstuffs. The experiment in a line: Latin Square-2AFC chew and spit test of KCl solid turkey. The settings on record: Homo sapiens, 1.6% KCl (80% KCl:20% NaCl marinade), dash = none of the tested conc., read-out: Conc. at Which At Least 50% of Panelist Discerned Decrease in Bitter Taste. The procedure: The effect of the test compounds on the perception of the bitter taste of KCl in solid-matrix foodstuffs in humans was evaluated using a “chew and spit” test using a Latin Square-2AFC testing method as follows.
Two types of marinades containing Prague powder, sugar, Evian™ water, KCl and/or NaCl in water were prepared. One marinade contained 80% KCl, 20% NaCl (by weight) (i.e., marinade concentration of […]). A second marinade contained 60% KCl:40% NaCl (by weight) (i.e., marinade concentration of 1.2% KCl). Compound stock solutions were prepared by dissolving an amount of test compound in ethanol or water (depending on the solubility of the compound) to create a 5 mg/mL stock compound solution. Enough ethanol was added to each stock compound solution to generate a final stock compound solution containing 1% ethanol. The marinade, the stock compound solution and ground turkey were added to a mixing bowl, mixed at low-speed for about 2 minutes, and then mixed at high-speed for about 5 minutes. The marinated turkey mixture was divided into one pound aliquots, vacuum sealed into food saver bags, and allowed to marinate for about 2 hours in a refrigerator. The vacuum-sealed turkey was then cooked in an about 86° C. water bath for about 30 minutes. If after about 30 minutes, the internal turkey temperature had not reached about 170° F., the vacuum-sealed turkey was cooked for about an additional 5 minutes. The vacuum-sealed turkey was then refrigerated for about two weeks before taste testing. KCl standards were similarly prepared by dissolving KCl in the marinade without adding any test compound during the turkey preparation.
The panelists tasted portions by chewing and spitting. In order to eliminate any effects of sample order, a complete Latin Square design was employed so that each possible order of sample presentation was utilized across subjects. Each simple was tested in several discrete taste test experiments. Panelists were asked to rinse with water, cat a cracker, and wait about 10 minutes between samples. In each case, the panelists were asked to choose the sample that tasted less bitter.

The mark [6] stands for this setting: read-out: Conc. Where Decrease in Bitter Taste Was Discerned.

Each structure is given as a SMILES string. Read-outs that look alike come from different tables or passages of the source.

`CC(C)=CCC/C(C)=C/COC(=O)Cc1ccccc1` [Compound 26]: the minimal effective concentration in assay [1] is 1 µg/mL; in assay [2] (read-out: Conc. Where Decrease in Bitter Taste Discerned and p ≦ 0.1), 10 µg/mL; in assay [2] (setting [6]) it was 10 µg/mL. Also, in assay [3], the “Conc. at Which At Least 50% of Panelist Discerned Decrease in Bitter Taste” value is recorded as 0.6 ppm.
For the molecule `C/C=C/C(=O)C1C(C)=CCCC1(C)C` (stereo not drawn) [Compound 2], the minimal effective concentration in assay [1] is 10 µg/mL; in assay [2] (setting [6]), 1 µg/mL; in assay [4] it was 2 µg/mL; in assay [5] it was 10 µg/mL. For the same molecule, the “Conc. at Which At Least 50% of Panelist Discerned Decrease in Bitter Taste” value in assay [3] is given as 25 ppm.
